Measured values from patent US5760022A, “Pharmaceutical composition with improved bioavailability of inositol phosphate” (Perstorp AB, priority 1994, dated 1998).
Structures can show the parent of a compound that is named as a salt.

Experiment: bioavailability of IP3 in pigs: concentration of IP3 in blood samples and AUC after intravenous injection, intraduodenal/oral formulation and oral sodium salt
Settings: pig, in vivo
Procedure: The blood samples were assayed for the content of IP3 and these measurements were used for the calculation of the reference data as 100% of the substance is introduced into the blood stream after an intravenous injection. Another five pigs were given the composition comprising the mixture of 2,3-dihydroxypropyl octanoate and IP3 as an intraduodenal dosing. The animals were treated with Atropin and anaesthetized with Hypnodil®/Sedaperone® whereafter a laparotomy was carried out. Blood samples were collected at the time intervals mentioned above and the concentration of IP3 was determined in each sample. By calculating the area under the curve (AUC) from a graph where the concentration versus time is shown and comparing the obtained value with a similar calculation from the data after intravenous injection of the substance the bioavailability for this specific formulation is obtained.
Blood samples were collected at the same time intervals as above and the concentration of IP3 was determined. Following a similar procedure the AUC was determined.
Blood samples were collected and the concentration of IP3 were determined.

Structure (SMILES): O=P(O)(O)O[C@@H]1[C@H](OP(=O)(O)O)[C@H](O)[C@@H](O)[C@H](O)[C@H]1OP(=O)(O)O [sodium salt of IP3, D-myo-inositol-1,2,6-trisphosphate]
- Normalized AUC (%): 3%
- Normalized AUC (%) (iv): 100%
- concentration at 0.25 h (iv): 53700 nM
- concentration at 0.5 h (iv): 40000 nM
- concentration at 1 h (iv): 21600 nM
- concentration at 1.5 h (iv): 12100 nM
- concentration at 4 h (iv): 2600 nM
- concentration at 8 h (iv): 600 nM
- conc IP3 (iv, 0 min): 0 nM
- concentration at 0.5 h (po): 600 nM
- concentration at 1.5 h (po): 500 nM
- concentration at 2 h (po): 600 nM
- concentration at 4 h (po): 400 nM
- concentration at 6 h (po): 400 nM
- conc IP3 (po, 0 min): 0 nM
- conc IP3 (po, 480 min): 0 nM
